Experimental data reported in publication PMC6508984 (Journal of medicinal chemistry, 2019).
pEC50: −log10 of the molar value.

Columns and labels:
GluA2(R)o = GluA2(R)o (Rattus norvegicus, UniProt P19491, Q607R); conditions: Hill coefficient of binding curve
GluA4o = GluA4o (Rattus norvegicus, UniProt P19493); conditions: Hill coefficient of binding curve
GluA3o = GluA3o (Rattus norvegicus, UniProt P19492); conditions: Hill coefficient of binding curve
GluA1o = GluA1o (Rattus norvegicus, UniProt P19490); conditions: Hill coefficient of binding curve
GluA2i(Q) = GluA2i(Q) (Rattus norvegicus, UniProt P19491); assay: Ca2+/Fluo-4 assay, GluA2; assay type: cell-based; conditions: for GluA2i(Q) SAR@: concentration giving significant agonist response >5% of the maximal response induced by (S)-Glu: HEK293, complete concentration-response curve could not be obtained
GluA3i = GluA3i (Rattus norvegicus, UniProt P19492); assay: Ca2+/Fluo-4 assay, GluA3i-HEK293 cell line; assay type: cell-based
GluA1i = GluA1i (Rattus norvegicus, UniProt P19490); assay: Ca2+/Fluo-4 assay, GluA1i-HEK293 cell line; assay type: cell-based
GluA4i = GluA4i (Rattus norvegicus, UniProt P19493); assay: cell-based; conditions: GluA4i EC50, HEK293; 10 mM Ca2+ and 100 μM cyclothiazide; tested up to 1000 μM
GluN1/2B = GluN1/2B (Rattus norvegicus, UniProt P35439+Q00960); conditions: 100 μM, in absence of both Glu and Gly
GluN1/2D = GluN1/2D (Rattus norvegicus, UniProt P35439+Q62645); conditions: 100 μM, in absence of both Glu and Gly
GluN1/2C = GluN1/2C (Rattus norvegicus, UniProt P35439+Q00961); conditions: 100 μM, in absence of both Glu and Gly

Chain of GluA2i(Q) (P19491 22-883 isoform P19491-2 limits assumed): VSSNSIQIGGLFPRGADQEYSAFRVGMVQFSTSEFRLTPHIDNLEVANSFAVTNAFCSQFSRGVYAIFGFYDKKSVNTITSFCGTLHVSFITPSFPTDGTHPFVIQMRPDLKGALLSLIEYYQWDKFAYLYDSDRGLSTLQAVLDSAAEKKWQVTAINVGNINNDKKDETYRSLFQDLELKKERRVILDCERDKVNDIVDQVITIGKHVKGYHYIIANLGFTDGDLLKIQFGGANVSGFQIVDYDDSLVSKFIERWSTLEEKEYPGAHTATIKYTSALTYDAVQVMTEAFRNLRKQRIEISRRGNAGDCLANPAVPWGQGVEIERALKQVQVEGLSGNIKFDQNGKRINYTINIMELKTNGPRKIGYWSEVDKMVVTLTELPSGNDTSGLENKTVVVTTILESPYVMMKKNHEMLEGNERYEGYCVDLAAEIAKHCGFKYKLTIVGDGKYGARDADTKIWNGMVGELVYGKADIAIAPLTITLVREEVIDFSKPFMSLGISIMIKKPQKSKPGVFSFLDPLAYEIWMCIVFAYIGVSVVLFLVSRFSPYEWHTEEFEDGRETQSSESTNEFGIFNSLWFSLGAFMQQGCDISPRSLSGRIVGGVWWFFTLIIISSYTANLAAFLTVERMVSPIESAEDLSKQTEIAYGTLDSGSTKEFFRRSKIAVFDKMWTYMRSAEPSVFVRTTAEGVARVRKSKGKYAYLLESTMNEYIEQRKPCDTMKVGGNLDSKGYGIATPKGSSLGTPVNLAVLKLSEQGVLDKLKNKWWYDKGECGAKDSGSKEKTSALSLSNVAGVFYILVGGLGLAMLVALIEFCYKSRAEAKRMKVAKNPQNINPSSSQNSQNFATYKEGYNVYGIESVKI
Chain of GluA1i (P19490 19-907 isoform P19490-2 limits assumed): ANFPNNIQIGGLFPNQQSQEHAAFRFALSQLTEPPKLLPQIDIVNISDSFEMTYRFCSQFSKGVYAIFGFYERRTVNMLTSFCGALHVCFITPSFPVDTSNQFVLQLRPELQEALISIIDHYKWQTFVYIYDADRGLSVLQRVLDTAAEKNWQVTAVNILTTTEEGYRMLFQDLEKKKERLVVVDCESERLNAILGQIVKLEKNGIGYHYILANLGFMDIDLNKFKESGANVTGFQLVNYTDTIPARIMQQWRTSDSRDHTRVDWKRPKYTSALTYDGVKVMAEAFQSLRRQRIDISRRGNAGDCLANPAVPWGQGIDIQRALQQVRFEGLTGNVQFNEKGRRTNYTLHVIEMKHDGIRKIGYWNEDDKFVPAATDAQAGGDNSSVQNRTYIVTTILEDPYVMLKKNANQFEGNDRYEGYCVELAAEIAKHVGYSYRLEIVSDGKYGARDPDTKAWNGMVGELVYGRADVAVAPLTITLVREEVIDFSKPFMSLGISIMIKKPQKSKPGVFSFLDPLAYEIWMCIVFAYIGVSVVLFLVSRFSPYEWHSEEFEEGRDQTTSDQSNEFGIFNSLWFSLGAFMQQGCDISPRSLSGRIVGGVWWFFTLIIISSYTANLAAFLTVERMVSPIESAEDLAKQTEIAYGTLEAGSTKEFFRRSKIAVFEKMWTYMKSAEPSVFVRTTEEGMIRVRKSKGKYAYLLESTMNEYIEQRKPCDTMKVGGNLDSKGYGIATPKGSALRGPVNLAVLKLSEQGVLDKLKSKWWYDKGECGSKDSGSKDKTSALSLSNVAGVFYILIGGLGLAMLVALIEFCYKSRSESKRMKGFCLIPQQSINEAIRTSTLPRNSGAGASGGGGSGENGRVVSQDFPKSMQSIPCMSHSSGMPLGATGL
Chain of GluA2(R)o (P19491 22-883 Q607R): as the sequence (P19491 22-883 isoform P19491-2 limits assumed) above, with Q586R, T744N, P745A, S754N, V758L, A775S, K776G, D777G, S778G, G779D counted along it
Chain of GluA3o (P19492 23-888): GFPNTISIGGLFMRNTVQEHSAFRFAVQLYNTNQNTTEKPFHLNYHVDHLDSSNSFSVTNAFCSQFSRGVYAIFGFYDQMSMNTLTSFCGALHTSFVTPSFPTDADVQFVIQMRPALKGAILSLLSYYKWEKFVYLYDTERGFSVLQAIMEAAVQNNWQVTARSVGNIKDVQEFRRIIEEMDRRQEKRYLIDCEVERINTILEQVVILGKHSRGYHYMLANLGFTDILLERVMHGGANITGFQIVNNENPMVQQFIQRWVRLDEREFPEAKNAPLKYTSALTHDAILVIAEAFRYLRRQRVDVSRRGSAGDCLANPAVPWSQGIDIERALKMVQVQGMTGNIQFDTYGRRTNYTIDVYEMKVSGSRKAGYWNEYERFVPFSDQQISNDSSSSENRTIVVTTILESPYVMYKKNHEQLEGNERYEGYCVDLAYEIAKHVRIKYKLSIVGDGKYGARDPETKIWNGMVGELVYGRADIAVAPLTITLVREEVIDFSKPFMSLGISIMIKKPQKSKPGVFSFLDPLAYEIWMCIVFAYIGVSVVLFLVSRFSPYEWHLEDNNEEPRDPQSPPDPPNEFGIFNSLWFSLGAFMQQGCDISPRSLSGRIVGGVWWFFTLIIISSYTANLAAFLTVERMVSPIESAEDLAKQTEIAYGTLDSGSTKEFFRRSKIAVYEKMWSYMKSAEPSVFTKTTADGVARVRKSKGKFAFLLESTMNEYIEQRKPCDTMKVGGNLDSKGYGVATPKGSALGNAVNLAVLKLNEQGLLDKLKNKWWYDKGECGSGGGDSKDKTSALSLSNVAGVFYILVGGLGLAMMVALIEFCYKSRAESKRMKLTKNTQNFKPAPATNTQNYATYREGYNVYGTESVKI
Chain of GluA3i (P19492 23-888 isoform P19492-2 limits assumed): as the sequence (P19492 23-888) above, with N748T, A749P, N758S, L762I, S779A, G780K, G781D, G782S, D783G counted along it
Chain of GluA1o (P19490 19-907): as the sequence (P19490 19-907 isoform P19490-2 limits assumed) above, with G740N, S750N, V754L, S760N, K772G, D773G, S774G, G775D counted along it
Chain of GluA4i (P19493 22-902 isoform P19493-2 limits assumed): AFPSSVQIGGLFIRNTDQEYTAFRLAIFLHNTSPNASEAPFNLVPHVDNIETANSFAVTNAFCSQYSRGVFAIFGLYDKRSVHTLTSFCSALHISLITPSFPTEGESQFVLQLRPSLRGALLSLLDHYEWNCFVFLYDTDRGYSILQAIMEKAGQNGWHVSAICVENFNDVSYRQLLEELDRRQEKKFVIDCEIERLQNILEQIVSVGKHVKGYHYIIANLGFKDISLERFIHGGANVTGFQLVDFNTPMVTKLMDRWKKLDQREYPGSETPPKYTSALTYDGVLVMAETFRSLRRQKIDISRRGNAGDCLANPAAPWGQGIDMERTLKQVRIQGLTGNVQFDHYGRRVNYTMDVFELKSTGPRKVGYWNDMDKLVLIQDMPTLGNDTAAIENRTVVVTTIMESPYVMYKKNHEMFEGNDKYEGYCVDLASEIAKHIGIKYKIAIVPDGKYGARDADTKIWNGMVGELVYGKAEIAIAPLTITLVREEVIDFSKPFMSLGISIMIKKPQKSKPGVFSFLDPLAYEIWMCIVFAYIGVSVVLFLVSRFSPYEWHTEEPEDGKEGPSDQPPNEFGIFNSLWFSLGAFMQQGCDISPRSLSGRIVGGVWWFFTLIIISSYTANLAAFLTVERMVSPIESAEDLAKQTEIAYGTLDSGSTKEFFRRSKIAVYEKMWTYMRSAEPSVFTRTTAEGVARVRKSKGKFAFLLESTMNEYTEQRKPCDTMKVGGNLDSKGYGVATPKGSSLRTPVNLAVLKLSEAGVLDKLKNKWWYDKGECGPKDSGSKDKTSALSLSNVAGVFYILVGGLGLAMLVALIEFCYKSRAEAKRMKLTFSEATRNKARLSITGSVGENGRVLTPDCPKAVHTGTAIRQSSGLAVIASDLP
Chain of GluN1/2D (Q62645 28-1323, other chains not shown): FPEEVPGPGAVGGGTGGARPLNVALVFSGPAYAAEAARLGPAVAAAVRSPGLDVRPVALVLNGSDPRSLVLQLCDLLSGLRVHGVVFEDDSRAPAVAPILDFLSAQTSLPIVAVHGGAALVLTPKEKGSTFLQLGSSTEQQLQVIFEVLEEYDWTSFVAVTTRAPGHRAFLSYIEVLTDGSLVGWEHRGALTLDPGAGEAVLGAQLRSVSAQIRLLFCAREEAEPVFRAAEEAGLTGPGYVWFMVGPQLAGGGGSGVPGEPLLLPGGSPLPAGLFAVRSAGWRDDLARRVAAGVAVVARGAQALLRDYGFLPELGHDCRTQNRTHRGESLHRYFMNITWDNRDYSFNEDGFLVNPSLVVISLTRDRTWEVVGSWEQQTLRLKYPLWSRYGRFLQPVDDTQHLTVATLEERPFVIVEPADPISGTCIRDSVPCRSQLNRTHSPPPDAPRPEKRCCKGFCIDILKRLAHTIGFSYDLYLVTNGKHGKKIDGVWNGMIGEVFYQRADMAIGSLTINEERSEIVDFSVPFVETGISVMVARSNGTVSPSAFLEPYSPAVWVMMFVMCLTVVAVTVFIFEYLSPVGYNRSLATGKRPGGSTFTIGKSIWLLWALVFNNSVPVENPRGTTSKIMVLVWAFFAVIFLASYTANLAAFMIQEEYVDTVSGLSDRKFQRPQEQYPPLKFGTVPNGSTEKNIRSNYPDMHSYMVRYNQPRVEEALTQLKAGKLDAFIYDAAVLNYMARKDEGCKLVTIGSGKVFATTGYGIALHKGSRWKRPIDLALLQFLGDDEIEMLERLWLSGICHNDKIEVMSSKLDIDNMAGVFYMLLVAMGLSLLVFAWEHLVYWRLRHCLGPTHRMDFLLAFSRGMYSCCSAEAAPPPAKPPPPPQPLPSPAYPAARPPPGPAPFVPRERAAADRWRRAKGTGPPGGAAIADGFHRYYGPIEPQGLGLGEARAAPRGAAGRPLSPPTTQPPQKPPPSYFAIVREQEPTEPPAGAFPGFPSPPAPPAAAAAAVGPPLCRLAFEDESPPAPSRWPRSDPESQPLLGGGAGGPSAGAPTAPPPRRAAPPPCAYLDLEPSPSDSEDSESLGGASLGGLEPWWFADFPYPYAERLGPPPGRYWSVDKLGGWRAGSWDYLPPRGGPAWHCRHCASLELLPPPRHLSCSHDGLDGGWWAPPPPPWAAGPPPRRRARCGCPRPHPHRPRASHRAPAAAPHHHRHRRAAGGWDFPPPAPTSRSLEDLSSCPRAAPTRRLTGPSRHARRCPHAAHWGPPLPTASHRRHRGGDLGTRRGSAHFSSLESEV

| SMILES | GluA2(R)o nH (GluA2(R)o) | GluA3o nH (GluA3o) | GluA1o nH (GluA1o) | GluA2i(Q) SAR@: concentration giving significant agonist response >5% of the maximal response induced by (S)-Glu (GluA2i(Q)) | pEC50 (GluA3i) | pEC50 (GluA1i) | pEC50 (GluA2i(Q)) | other results |
| --- | --- | --- | --- | --- | --- | --- | --- | --- |
| Cn1nnc(O)c1CC(N)C(=O)O (racemic) [Compound 6a, (RS) 2-Amino-3-(4-hydroxy-1-methyl-1H-1,2,3-triazol-5-yl)propanoic acid] | 0.95 ± 0.09 | 0.95 ± 0.25 | 1.02 ± 0.17 | SAR@ 300 μM |  |  |  | GluA4o nH (GluA4o): 0.89 ± 0.07 |
| CCCn1nnc(O)c1CC(N)C(=O)O (racemic) [Compound 6c, (RS) 2-Amino-3-(4-hydroxy-1-propyl-1H-1,2,3-triazol-5-yl)propanoic acid] | 1.55 ± 0.65 | 0.75 ± 0.09 | 0.81 ± 0.07 | SAR@ 1000 μM |  |  |  |  |
| CCn1nc(O)c(CC(N)C(=O)O)n1 (racemic) [Compound 7b, (RS) 2-Amino-3-(2-ethyl-5-hydroxy-2H-1,2,3-triazol-4-yl)propanoic acid] |  |  |  |  | < 3.00 | < 3.00 | < 3.00 | pEC50 (GluA4i): < 3.00 |
| CCCn1nc(O)c(CC(N)C(=O)O)n1 (racemic) [Compound 7c, (RS) 2-Amino-3-(5-hydroxy-2-propyl-2H-1,2,3-triazol-4-yl)propanoic acid] |  |  |  |  | < 3.00 | < 3.00 | < 3.00 |  |
| Cn1nc(O)c(C(N)C(=O)O)n1 (racemic) [Compound 8, (RS) 2-Amino-2-(5-hydroxy-2-methyl-2H-1,2,3-triazol-4-yl)acetic acid] |  |  |  |  |  |  |  | Activation by compound alone (GluN1/2B): able to activate; Activation by compound alone (GluN1/2D): able to activate; Activation by compound alone (GluN1/2C): able to activate |
